Results as given in ChEMBL document CHEMBL5150005, “Discovery of 5-{4-[(7-Ethyl-6-oxo-5,6-dihydro-1,5-naphthyridin-3-yl)methyl]piperazin-1-yl}-N-methylpyridine-2-carboxamide (AZD5305): A PARP1-DNA Trapper with High Selectivity for PARP1 over PARP2 and Other PARPs” (J Med Chem, 2021).
In brackets after ≈: the same amount, converted by molar mass. Activity calls are given as the source filed them. No cut-off for these calls is given here.

Columns and labels:
[1] = in vitro; conditions: human, Caco-2, pH 7.4
[2] = molecular target: Poly [ADP-ribose] polymerase 1 (Homo sapiens, UniProt P09874)
[3] = molecular target: Voltage-gated inwardly rectifying potassium channel KCNH2 (Homo sapiens, UniProt Q12809); test: Inhibition of human ERG; format: toxicity
[4] = tested on: DLD-1; test: Antiproliferative activity against human DLD-1 deficient in BRCA-2 cells measured after 7 days; format: functional, cell-based; conditions: Homo sapiens, DLD-1, 168 h
[5] = Aqueous solubility of the compound at pH 7.4; format: physicochemical; conditions: buffer
[6] = physchem; conditions: buffer, pH 7.4
[7] = molecular target: Poly [ADP-ribose] polymerase 2 (Homo sapiens, UniProt Q9UGN5); test: Inhibition of human recombinant N-terminal Avi-6His-TEV tagged PARP2 full length expressed in pFastBac expression system incubated for 4 hrs by fluorescence anisotropy binding assay
[8] = in vitro; conditions: human, liver microsomes
[9] = Antitumor activity against patient derived explant HBCx-17 cells xenografted in mouse assessed as tumor regression administered daily at 100 mg/kg, po for 25 days relative to control; format: functional, Homo sapiens; conditions: time 25 day
[10] = molecular target: Poly [ADP-ribose] polymerase tankyrase-2 (Homo sapiens) (UniProt Q9H2K2)
[11] = molecular target: Protein mono-ADP-ribosyltransferase PARP8 (Homo sapiens, UniProt Q8N3A8); test: Binding affinity to PARP8 (unknown origin) assessed as apparent dissociation constant; conditions: read-out: Kd(app)
[12] = molecular target: Protein mono-ADP-ribosyltransferase PARP11 (Homo sapiens, UniProt Q9NR21)
[13] = molecular target: Protein mono-ADP-ribosyltransferase PARP9 (Homo sapiens, UniProt Q8IXQ6); test: Binding affinity to PARP9 (unknown origin) assessed as apparent dissociation constant; conditions: read-out: Kd(app)
[14] = molecular target: Poly [ADP-ribose] polymerase tankyrase-1 (Homo sapiens, UniProt O95271)
[15] = Intrinsic clearance in human hepatocytes measured per million of cells; format: ADME, cell-based, Hepatocyte; conditions: read-out: CLH

Poly [ADP-ribose] polymerase 2, sequence (Q9UGN5 whole entry): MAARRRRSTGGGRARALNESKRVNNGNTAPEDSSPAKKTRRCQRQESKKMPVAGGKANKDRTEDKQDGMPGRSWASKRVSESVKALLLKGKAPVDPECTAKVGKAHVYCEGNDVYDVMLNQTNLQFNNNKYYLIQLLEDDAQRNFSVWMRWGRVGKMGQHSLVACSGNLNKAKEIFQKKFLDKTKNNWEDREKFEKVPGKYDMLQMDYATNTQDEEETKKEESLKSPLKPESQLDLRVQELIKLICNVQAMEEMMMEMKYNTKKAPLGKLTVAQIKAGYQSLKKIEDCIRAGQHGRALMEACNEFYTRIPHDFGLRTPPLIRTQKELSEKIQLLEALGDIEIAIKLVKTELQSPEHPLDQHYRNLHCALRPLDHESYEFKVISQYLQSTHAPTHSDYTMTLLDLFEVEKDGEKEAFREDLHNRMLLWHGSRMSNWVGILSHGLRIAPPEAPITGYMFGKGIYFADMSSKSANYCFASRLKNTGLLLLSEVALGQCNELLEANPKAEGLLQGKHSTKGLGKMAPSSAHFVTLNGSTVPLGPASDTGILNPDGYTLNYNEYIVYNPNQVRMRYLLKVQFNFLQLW
Poly [ADP-ribose] polymerase 1, sequence (P09874 whole entry): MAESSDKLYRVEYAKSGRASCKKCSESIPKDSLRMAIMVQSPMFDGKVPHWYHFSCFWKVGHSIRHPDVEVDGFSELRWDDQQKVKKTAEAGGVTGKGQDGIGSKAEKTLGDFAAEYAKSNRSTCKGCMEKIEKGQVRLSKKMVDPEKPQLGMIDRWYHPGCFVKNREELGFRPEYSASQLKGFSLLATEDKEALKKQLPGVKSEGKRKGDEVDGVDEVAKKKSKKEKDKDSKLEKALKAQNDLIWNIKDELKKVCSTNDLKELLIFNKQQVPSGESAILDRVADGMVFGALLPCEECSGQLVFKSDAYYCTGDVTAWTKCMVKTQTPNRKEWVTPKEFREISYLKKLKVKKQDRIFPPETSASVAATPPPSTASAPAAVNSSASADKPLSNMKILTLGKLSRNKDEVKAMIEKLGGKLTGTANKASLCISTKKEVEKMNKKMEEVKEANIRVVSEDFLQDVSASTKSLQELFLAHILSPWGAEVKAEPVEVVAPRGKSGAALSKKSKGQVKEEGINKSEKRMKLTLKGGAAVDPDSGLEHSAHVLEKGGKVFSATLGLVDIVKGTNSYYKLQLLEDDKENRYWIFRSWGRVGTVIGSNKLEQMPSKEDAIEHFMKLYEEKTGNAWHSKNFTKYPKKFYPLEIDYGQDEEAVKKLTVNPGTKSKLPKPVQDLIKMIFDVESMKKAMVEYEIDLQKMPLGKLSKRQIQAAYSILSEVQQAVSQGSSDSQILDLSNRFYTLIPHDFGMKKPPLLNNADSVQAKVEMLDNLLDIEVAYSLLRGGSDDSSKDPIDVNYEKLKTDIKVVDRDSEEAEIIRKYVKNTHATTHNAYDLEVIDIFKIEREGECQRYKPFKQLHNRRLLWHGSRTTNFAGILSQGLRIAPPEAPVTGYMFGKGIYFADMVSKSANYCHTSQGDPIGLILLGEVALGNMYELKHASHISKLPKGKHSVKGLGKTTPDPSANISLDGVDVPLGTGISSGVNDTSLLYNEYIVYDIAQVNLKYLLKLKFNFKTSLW
Voltage-gated inwardly rectifying potassium channel KCNH2, sequence (Q12809 whole entry): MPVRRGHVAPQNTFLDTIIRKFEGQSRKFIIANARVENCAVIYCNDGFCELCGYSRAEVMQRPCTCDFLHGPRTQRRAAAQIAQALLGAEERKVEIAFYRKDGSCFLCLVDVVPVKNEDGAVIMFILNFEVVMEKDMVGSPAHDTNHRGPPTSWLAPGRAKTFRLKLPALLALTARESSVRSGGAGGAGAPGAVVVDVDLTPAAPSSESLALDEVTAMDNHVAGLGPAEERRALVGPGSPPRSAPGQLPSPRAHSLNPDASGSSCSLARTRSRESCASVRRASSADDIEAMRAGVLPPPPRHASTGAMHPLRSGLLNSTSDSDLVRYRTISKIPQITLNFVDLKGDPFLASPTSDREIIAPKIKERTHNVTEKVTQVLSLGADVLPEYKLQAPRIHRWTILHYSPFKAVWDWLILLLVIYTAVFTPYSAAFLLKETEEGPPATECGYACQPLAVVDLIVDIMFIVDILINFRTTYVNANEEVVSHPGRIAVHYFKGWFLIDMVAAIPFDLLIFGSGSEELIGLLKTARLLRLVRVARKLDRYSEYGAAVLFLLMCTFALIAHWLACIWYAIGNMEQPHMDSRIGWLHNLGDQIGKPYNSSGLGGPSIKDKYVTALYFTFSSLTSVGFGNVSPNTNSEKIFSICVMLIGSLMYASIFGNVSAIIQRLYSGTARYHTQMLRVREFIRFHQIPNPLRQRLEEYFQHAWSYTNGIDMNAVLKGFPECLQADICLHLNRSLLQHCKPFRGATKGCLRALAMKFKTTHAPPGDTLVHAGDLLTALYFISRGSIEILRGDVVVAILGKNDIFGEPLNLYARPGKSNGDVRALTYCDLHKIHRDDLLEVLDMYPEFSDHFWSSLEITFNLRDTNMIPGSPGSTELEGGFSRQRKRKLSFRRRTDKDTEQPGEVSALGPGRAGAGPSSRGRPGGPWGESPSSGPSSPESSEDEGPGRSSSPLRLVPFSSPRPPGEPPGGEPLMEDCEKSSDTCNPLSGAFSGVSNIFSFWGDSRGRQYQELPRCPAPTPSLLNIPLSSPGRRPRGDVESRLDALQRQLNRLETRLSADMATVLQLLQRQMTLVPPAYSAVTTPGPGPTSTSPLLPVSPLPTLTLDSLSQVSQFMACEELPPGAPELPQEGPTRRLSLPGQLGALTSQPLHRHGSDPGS
Poly [ADP-ribose] polymerase tankyrase-2 (Homo sapiens), sequence (Q9H2K2 whole entry): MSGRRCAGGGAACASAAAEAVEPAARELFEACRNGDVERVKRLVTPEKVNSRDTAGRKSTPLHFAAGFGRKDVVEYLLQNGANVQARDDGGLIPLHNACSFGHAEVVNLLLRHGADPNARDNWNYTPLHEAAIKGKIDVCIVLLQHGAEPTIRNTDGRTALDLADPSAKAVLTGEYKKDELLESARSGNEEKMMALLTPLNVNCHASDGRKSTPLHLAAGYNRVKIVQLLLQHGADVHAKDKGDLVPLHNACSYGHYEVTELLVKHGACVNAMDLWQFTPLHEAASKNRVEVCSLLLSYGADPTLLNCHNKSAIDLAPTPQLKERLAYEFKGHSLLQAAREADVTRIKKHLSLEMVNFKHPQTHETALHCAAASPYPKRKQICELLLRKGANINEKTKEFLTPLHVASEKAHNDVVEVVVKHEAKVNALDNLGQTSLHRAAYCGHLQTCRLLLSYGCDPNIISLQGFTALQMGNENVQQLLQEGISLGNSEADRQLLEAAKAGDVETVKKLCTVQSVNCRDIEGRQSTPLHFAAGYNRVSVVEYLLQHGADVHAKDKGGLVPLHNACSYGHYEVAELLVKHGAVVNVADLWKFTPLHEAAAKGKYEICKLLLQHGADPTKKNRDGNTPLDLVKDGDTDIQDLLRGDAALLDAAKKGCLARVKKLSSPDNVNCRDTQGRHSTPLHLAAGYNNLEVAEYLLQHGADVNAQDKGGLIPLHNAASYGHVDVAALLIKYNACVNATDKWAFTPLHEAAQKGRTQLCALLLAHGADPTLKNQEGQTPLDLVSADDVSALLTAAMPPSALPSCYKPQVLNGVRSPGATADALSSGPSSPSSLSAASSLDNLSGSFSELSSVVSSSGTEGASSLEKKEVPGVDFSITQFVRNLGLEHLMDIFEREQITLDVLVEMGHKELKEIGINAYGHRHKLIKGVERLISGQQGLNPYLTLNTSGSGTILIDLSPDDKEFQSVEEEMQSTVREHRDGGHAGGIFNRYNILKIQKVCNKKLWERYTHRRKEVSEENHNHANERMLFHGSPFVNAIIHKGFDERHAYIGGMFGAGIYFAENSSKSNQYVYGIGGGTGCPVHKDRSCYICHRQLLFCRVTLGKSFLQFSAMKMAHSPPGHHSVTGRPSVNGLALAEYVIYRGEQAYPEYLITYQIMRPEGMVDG
Protein mono-ADP-ribosyltransferase PARP11, sequence (Q9NR21 whole entry): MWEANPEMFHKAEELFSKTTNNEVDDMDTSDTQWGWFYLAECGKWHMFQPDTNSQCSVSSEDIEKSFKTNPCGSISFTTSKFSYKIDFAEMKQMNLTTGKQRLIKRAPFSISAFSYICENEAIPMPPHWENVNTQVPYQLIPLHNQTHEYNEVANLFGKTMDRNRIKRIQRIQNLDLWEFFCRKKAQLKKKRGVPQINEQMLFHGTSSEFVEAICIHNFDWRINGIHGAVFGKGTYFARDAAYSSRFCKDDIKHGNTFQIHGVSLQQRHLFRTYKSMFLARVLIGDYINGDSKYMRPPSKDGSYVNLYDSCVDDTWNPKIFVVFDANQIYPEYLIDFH

SMILES | efflux ratio [1] | IC50 [2] | IC50 [4] | solubility [5] | logD [6] | IC50 [7] | microsomal CLint [8] | Kd(app) [10] | Kd [11] | Kd [12] | Kd [13] | IC50 [14] | hepatocyte CLint [15] | IC50 [3] | Activity [9]
CCc1cc2ccc(CN3CCN(c4ccc(C(=O)NC)nc4)CC3)cc2[nH]c1=O | 0.7 | 0.005 µM | 0.003 µM | 9 µM (≈ 3.65 µg/mL) | 2.8 | 1.1 µM | 17 µL/min/mg | – | – | – | – | – | – | 21 µM | –
O=C(c1cc(Cc2n[nH]c(=O)c3ccccc23)ccc1F)N1CCN(C(=O)C2CC2)CC1 [OLAPARIB] | – | – | 0.042 µM | – | – | – | – | – | – | – | – | – | – | – | 81%
CNCc1ccc(-c2[nH]c3cc(F)cc4c3c2CCNC4=O)cc1 [RUCAPARIB] | – | – | 0.027 µM | – | – | – | – | Active | > 10 µM | > 10 µM | 3.1 µM | – | – | – | –
Cc1cnc(N2CCN(Cc3ccc4c5c(c(=O)[nH]c4c3)CCCN5)CC2)n1C | 3.6 | 0.051 µM | 0.052 µM | 136 µM (≈ 53.4 µg/mL) | 2.2 | 1.1 µM | 15 µL/min/mg | – | – | – | – | – | – | 30 µM | –
Cc1cnc(N2CCN(Cc3ccc4c5c(c(=O)[nH]c4c3)CCCC5)CC2)n1C | – | – | – | 46 µM (≈ 18 µg/mL) | 3.2 | 0.49 µM | 57 µL/min/mg | – | – | – | – | – | – | 3.8 µM | –
Cc1cnc(N2CCN(Cc3ccc4c(c3)[nH]c(=O)c3ncccc34)CC2)n1C | – | – | 0.121 µM | 383 µM (≈ 149 µg/mL) | 1.7 | 28 µM | 9 µL/min/mg | – | – | – | – | – | – | > 40 µM | –
NC(=O)c1cc(F)cc2c1C(=O)N(C1CCN(C3CCC(F)(F)CC3)CC1)C2 | – | – | 2 µM | – | – | – | – | – | – | – | – | > 100 µM | – | – | –
CCc1nc2ccc(CN3CCN(c4ccc(C(=O)NC)nc4)CC3)cc2[nH]c1=O | 1 | – | 0.004 µM | 12 µM (≈ 4.88 µg/mL) | 2.4 | 4.9 µM | 7 µL/min/mg | – | – | – | – | – | 1.9 µL/min/1e6 cells | – | –

More lines, main results first:

efflux ratio [1] | IC50 [2] | IC50 [4] | solubility [5] | logD [6] | IC50 [7] | microsomal CLint [8] | Kd(app) [10] | Kd [11] | Kd [12] | Kd [13] | IC50 [14] | hepatocyte CLint [15] | SMILES | IC50 [3] | Activity [9]
– | – | 0.007 µM | < 0.25 µM | 3 | 3.9 µM | 11 µL/min/mg | – | – | – | – | – | – | CCc1cc2ccc(CN3CCN(c4ccc(C(=O)NC)cc4)CC3)cc2[nH]c1=O | 8.3 µM | –
14 | 0.008 µM | 2.5 µM | 58 µM (≈ 23.6 µg/mL) | 1.8 | 2.4 µM | < 3 µL/min/mg | – | – | – | – | – | – | CCc1cc2ccc(CN3CCN(c4cnc(C(=O)NC)nc4)CC3)cc2[nH]c1=O | > 40 µM | –
– | – | – | 6 µM (≈ 2.51 µg/mL) | 3.9 | 22 µM | 58 µL/min/mg | – | – | – | – | – | – | O=c1[nH]c(CCCN2CCN(c3ccc(F)cc3F)CC2)nc2c(Cl)cccc12 | 1.4 µM | –
– | – | 0.002 µM | 31 µM (≈ 12.6 µg/mL) | 2 | – | 6 µL/min/mg | – | – | – | – | – | < 1 µL/min/1e6 cells | CCc1cc2cnc(CN3CCN(c4ccc(C(=O)NC)nc4)CC3)cc2[nH]c1=O | – | –
